From ChEMBL document CHEMBL1128349 (J Med Chem, 1995) come the findings set out here.

Assay [1] deals with Voltage-gated L-type calcium channel (Rattus norvegicus, UniProt P22002+Q02485+P27732). Briefly: Displacement of [3H]nitrendipine from rat brain L-type [Ca2+] channel. Type of assay: tissue-based.
In assay [2] the target is T1, Alpha-2A adrenergic receptor (Homo sapiens, UniProt P08913).
T1 sequence (P08913 whole entry): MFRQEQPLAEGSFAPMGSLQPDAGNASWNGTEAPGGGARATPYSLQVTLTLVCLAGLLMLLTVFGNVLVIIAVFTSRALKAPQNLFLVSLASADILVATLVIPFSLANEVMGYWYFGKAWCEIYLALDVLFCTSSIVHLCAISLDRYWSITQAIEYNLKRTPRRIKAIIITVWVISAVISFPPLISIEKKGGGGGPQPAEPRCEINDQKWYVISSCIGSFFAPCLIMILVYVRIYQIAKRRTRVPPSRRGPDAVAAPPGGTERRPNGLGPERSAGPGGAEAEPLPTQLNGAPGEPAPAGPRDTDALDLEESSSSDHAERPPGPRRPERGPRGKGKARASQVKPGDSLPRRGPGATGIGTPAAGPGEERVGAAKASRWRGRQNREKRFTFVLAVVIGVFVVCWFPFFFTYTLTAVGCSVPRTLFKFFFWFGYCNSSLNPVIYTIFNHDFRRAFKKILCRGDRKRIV
Briefly: Ability to displace [3H]rauwolscine from cloned human Alpha-2A adrenergic receptor.

In assay [3] the target is T2, Alpha-1A adrenergic receptor (Homo sapiens, UniProt P35348).
T2 sequence (P35348 whole entry): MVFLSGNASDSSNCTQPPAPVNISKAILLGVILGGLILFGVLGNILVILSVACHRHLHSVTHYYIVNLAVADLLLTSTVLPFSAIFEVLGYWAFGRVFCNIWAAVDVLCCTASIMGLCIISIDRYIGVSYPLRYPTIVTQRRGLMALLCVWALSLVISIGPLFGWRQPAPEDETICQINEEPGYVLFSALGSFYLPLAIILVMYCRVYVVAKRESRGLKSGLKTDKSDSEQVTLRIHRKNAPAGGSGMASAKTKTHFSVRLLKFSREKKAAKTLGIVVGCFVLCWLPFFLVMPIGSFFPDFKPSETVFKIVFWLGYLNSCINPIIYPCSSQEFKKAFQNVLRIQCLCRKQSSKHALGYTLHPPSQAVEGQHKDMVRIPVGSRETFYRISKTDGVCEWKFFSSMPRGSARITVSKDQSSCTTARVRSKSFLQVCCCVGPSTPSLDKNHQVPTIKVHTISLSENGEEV

In assay [4] the target is T3, Alpha-2B adrenergic receptor (Homo sapiens, UniProt P18089).
T3 sequence (P18089 whole entry): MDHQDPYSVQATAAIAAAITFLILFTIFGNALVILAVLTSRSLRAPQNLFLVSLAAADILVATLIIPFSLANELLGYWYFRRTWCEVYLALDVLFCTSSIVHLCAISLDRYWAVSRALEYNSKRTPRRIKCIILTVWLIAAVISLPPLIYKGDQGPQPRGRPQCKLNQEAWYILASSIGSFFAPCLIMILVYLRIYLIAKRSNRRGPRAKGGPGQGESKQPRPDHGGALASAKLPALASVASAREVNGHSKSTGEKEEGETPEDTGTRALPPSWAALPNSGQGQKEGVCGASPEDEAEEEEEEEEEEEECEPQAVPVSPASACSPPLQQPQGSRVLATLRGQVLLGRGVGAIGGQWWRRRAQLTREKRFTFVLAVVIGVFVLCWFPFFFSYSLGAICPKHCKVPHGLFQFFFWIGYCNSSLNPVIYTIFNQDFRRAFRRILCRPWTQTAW

Assay [5] addresses T4, Alpha-2C adrenergic receptor (Homo sapiens, UniProt P18825).
T4 sequence (P18825 whole entry): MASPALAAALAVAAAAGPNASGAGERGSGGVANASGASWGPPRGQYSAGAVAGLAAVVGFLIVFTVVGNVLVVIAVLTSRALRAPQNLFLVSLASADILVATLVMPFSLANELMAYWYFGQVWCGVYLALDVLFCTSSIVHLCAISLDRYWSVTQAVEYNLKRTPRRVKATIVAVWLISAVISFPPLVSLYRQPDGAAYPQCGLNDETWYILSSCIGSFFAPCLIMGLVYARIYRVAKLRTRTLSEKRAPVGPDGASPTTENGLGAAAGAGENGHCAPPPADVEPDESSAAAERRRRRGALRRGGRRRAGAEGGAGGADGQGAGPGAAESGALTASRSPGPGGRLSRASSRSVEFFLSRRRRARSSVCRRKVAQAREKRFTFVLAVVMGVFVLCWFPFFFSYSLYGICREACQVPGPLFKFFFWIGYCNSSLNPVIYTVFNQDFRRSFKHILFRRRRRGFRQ
The assay is described as follows: Ability to displace [3H]rauwolscine from cloned human Alpha-2C adrenergic receptor.

Assay [6] concerns the target T5, Alpha-1D adrenergic receptor (Homo sapiens, UniProt P25100).
T5 sequence (P25100 whole entry): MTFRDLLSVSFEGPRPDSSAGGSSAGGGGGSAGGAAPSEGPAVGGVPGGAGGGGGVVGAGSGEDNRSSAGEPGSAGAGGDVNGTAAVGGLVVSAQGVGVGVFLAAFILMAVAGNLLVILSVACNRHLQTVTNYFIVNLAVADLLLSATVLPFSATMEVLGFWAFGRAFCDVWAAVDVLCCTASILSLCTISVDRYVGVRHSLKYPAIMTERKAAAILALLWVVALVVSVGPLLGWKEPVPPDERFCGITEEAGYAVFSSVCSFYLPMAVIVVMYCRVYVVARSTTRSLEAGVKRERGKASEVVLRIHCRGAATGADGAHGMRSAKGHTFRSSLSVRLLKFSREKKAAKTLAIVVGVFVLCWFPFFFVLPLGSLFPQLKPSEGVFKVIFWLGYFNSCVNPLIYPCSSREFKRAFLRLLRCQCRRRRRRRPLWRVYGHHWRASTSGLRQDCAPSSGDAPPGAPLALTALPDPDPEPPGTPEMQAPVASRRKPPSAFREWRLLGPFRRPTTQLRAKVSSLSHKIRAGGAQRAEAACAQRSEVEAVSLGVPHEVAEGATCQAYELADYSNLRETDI
Briefly: Ability to displace [3H]prazosin from cloned human Alpha-1D adrenergic receptor.

Assay [7] concerns the target T6, Alpha-1B adrenergic receptor (Homo sapiens, UniProt P35368).
T6 sequence (P35368 whole entry): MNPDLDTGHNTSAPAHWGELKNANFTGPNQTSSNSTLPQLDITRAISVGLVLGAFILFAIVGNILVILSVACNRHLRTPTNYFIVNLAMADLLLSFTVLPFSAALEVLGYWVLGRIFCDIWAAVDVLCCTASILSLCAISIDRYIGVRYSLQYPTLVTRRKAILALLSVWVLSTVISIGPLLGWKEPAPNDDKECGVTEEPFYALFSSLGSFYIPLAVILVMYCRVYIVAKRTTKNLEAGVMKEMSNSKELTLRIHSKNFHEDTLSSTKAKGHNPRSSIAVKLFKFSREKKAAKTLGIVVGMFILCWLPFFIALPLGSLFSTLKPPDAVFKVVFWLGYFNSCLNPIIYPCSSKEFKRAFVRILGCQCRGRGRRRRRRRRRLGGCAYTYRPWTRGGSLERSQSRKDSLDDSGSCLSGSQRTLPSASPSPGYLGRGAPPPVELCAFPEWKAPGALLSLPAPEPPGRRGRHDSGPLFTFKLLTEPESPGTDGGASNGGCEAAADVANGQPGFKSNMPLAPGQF
Briefly: Ability to displace [3H]prazosin from cloned human Alpha-1B adrenergic receptor.

`CO/C(O)=C1\C(C)=NC(C)=C(C(=O)NCCCN2CCC(c3ccccc3)(c3ccccc3)CC2)[C@H]1c1ccc([N+](=O)[O-])cc1`: the Ki in assay [1] was determined as 670 nM; in assay [2] it was […].
Turning to `CO/C(O)=C1\C(C)=NC(C)=C(C(=O)OCCCN2CCC(c3ccccc3)(c3ccccc3)CC2)C1c1ccc([N+](=O)[O-])cc1` (configuration not stated), the Ki came out at 250 nM in assay [1]; 0.32 nM in assay [3]; 570 nM in assay [4]; 300 nM in assay [5]; 800 nM in assay [2]; 210 nM in assay [6]. Further, in assay [7], the Ki was found to be 50 nM.
As to `COc1cc2nc(N3CCN(C(=O)c4ccco4)CC3)nc(N)c2cc1OC` [PRAZOSIN], the Ki in assay [1] is given as > 10000 nM.
`COc1cc2nc(N3CCN(C(=O)C4CCCO4)CC3)nc(N)c2cc1OC` (configuration not stated) [TERAZOSIN]: the Ki was found to be 550 nM in assay [2] and 3.7 nM in assay [6].
